Entries after “also recorded” stand apart in the source; their conditions may differ.

The subject of one data set is wild-type V79 cells. The data set can be described thus: Uptake of NQO2 co-substrates into V79 cells (fluorimetry). In kind it is in vitro ADME, Chinese hamster. To be noted: for uptake / internalisation into cells: 1 mM co-substrate, 37° C. The procedure:
The uptake of various NQO2 co-substrates into V79 cells was determined by fluorimetry. V79 cells were seeded into T25 tissue culture flasks and allowed to grow to confluence (^−2×10^7 cells). The growth medium was removed and replaced with 10 mls of fresh medium containing 1 mM of co-substrate and incubated at 37° C. At various the medium was removed and the cell monolayer washed ×5 with 50 mL of ice cold PBS. The cells were removed by trypsinisation and pelleted by centrifugation. The cell pellet was resuspended in alkaline lysis buffer (KOH 0.5M; 36% W/v CsCl; in 50% aqueous ethanol) disrupted by agitation and the cell debris removed by centrifugation at 10,000 g. The concentration of co-substrate was determined by fluorimetry (excitation 360 nm, emission 450 nm, slits 5nm) by diluting 100μl of supernatant in 2.9ml of 100 mM sodium bicarbonate buffer pH 10. The fluorimeter was calibrated against the appropriate standard. All measurements were done in triplicate.

A further data set deals with T1, Rat DT-diaphorase (Rattus norvegicus, UniProt P05982).
T1 sequence (P05982 2-274 limits assumed): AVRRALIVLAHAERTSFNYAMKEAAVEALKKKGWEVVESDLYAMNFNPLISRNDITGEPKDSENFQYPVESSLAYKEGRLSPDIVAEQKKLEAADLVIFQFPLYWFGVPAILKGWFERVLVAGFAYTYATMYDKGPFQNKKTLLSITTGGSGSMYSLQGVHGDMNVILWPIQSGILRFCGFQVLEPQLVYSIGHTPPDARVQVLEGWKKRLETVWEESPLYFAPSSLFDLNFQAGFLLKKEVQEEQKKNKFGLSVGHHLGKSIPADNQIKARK
The data set can be described thus: Use of co-substrates by rat DT diaphorase for reduction of CB1954. In kind it is biochemical.

For a further data set, the target named is E. coli nitroreductase (Escherichia coli, UniProt P38489). The data set can be described thus: Use of co-substrates by E. coli nitroreductase for reduction of CB1954. In kind it is biochemical.
Sequence of E. coli nitroreductase (P38489 whole entry): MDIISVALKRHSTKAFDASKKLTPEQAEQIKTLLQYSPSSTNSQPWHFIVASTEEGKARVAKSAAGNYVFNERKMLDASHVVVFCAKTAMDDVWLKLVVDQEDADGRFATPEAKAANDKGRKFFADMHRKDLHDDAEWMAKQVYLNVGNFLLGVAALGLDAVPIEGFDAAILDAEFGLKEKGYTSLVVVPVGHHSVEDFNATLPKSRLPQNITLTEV
Data set [1] in a line: Effect on the body weight of normal mice (in vivo toxicity). To be noted: intravenous (tail vein), 8 day period. The procedure:
Mice (6 groups of 3) were injected intravenously (tail vein) with either compound 1 or 2 at the doses shown and the weight of the mice was monitored over an 8 day period. Control mice received vehicle (phosphate buffered saline) only.

The test system of data set [2] is human T98G gliobastoma cells. The data set is described as follows: Cytotoxicity of CB 1954 on T98G glioblastoma cells with NQO2 co-substrates. The following applies: 144 hr in presence of CB 1954.
In data set [3] the target is T2, NQO2 (Homo sapiens, UniProt P16083).
T2 sequence (P16083 1-231): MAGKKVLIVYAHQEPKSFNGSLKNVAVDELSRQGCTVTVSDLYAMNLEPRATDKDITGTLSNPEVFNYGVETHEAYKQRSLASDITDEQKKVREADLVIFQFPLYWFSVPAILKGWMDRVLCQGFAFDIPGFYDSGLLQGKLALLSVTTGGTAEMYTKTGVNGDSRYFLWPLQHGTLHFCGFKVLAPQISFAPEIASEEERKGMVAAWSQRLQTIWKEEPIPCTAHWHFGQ
The data set is described as follows: Co-substrate activity with NQO2 for reduction of CB 1954 (HPLC). The format is biochemical. Details: restriction site were added to the 5′ and 3′-ends of the full-length NQO2 cDNA; made in house; host or cells: E. coli (expression vector pKK233-2, plasmid pKK-hNQO2). The following applies: for Km: of NQO2 for the co-substrate, CB1954 as electron acceptor (100 μM); for kcat: of NQO2 with the co-substrate, CB1954 as electron acceptor; for RELATIVE RATE OF REDUCTION: CB 1954 reduction by NQO2, co-substrate initial 500 μM, CB 1954 initial 100 μM; for ability to act as co-substrate for NQO2: reduction of CB 1954 by NQO2. As to the method: The effect of various co-substrates on CB 1954 was determined as above but NADH. NADPH or NMNH was substituted for the NRH and CB 1954 was used at a fixed concentration of 100 μM. The enzyme concentration was 5 μg/ml. The reduction of CB 1954 was monitored by measuring both the decrease in its corresponding peak area on the HPLC trace and the increase in the area of the peak corresponding to the reduction product 5-(aziridin-1-yl)-4-hydroxylamino-2-nitrobenzamide. The relative rates of reduction were determined at 10% reduction of CB1954 from a graph plotting CB 1954 reduction against time. The time axis was normalised to the equivalent of 10 μg/ml of NQO2.
The activity of various potential co-substrates was determined by HPLC analysis in the presence of CB1954 and NQO2. To determine the kinetic parameters NQO2 (1 μg/ml) was incubated with NRH (5000 μM) and CB1954 at different concentrations (0.1 to 2 mM) in sodium phosphate buffer (10MM, pH 7) at 37° C. At various times, aliquots (10 μl) were injected onto a Partisphere SCX (250×4.5 mm) HPLC column (Whatman Ltd) and eluted isocratically (1.5 ml/min) with 50 mM aqueous sodium phosphate containing 1% methanol. The eluate was continuously monitored for absorption at 320 nm. […] The reduction of CB1954 was monitored by quantifying the increase in the area of the peak corresponding to the reduction product 5-(aziridin-1-yl)-4-hydroxylamino-2-nitrobenzamide. All the assays were initiated by addition of the enzyme and performed in duplicate. The kinetic parameters were calculated by plotting the initial rate of reduction at each concentration of CB1954 against that concentration and fitting the data to the Michaelis-Menton equation using a computer programme (Fig P). Values were confirmed by transforming the data and fitting it to various linear forms of the equation by regression analysis.
The effect of various co-substrates on CB1954 reduction was determined as above but the co-substrate was substituted for the NRH and C1954 was used at a fixed concentration of 100 μM. The enzyme concentration was 1 or 5 μg/ml. The reduction of CB1954 was monitored by measuring both the decrease in its corresponding peak area on the HPLC trace and the increase in the area of the peak corresponding to the reduction product 5-(aziridin-1-yl)-4-hydroxylamino-2-nitrobenzamide. The relative rates of reduction were determined at 10% reduction of CB1954 from a graph plotting CB1954 reduction against time. The time axis was normalised to the equivalent of 10 μg/ml of NQO2. The kinetic parameters of NQO2 for the various co-substrates was determined as for CB1954 except that the initial concentration of CB1954 was constant at 100 μm whilst that of the co-substrate was varied from 0 to 2 mM. The enzyme concentration was 0.5 μg/ml.

Data set [4] addresses T2, NQO2. The data set is described as follows: Inhibition of NQO2 by flavones. In kind it is biochemical. The following applies: competitive with respect to NRH; read-out: K1 (competitive inhibitor with respect to NRH).
Substrate in data set [5]: NC(=O)c1cc(N2CC2)c([N+](=O)[O-])cc1[N+](=O)[O-]
The data set can be described thus: Kinetic parameters of NQO2 with respect to CB 1954 (HPLC). The format is biochemical, human. The following applies: other: with respect to CB 1954; NRH as co-substrate; pH 7.0; 37.0 °C. As to the method:
Recombinant human NQO2 was prepared in E. coli. A NcoI and a HindIII restriction site were added to the 5′ and 3′-ends of the full-length NQO2 cDNA, respectively, using a PCR method with primers and nucleotide sequences derived from the 5′ and 3′-ends of the cDNA. The PCR product was resolved over a 1% agarose gel and then extracted using the QiAquick Gel Extraction Kit (Qiagen Inc). The gel-purified PCR product was cloned into PCRII vector from the TA cloning kit (Invitrogen Co) and the correct sequence of the PCR product was checked by dideoxy sequencing. The resulting construct was religated into the E. coli expression vector, pKK233-2 (Pharmacia) through the engineered NcoI and HindIII restriction sites. The expression plasmid was designated pKK-hNQO2. […] The purified NQO2 preparation was analysed by SDS-PAGE electrophoresis. The activity of NQO2 in the presence of CB 1954, and various cofactors was determined by HPLC. […] The eluate was continuously monitored for absorption at 320 nm. […] The reduction of CB 1954 was monitored by quantifying the increase in the area of the peak corresponding to the reduction product 5-(aziridin-1-yl)-4-hydroxylamino-2-nitrobenzamide. […] The kinetic parameters were calculated by plotting the initial rate of reduction at each concentration of CB 1954 against that concentration and fitting the data to the Michales-Menton equation using a computer programme (FigP). […]

For the molecule `NC(=O)C1=CN(CCCS(=O)(=O)O)C=CC1` [Compound 1, 1-(3-sulfonatopropyl)-dihydronicotinamide], the “uptake / internalisation into cells” value in the data set on wild-type V79 cells is “excluded from the cells; also recorded: do not expect it to enter cells and this is what is observed”. Moreover, in the data set on wild-type V79 cells (listed as compound 1), the “uptake / internalisation into cells” value was “excluded from cells; also recorded: not able to enter the cells”. For the same molecule, the “ability of rat DT diaphorase to use as co-substrate” value (shortened to “ability of rat DT diaphorase to use”) on Rat DT-diaphorase was “able to use”. Moreover, the “ability of E. coli nitroreductase to use as co-substrate” value (“ability of E. coli nitroreductase” for short) on E. coli nitroreductase is “not able to use either”. The “intrinsic toxicity as judged by body weight loss” value in data set [1] is reported as “no evidence of intrinsic toxicity”. Moreover, in data set [2], the “increase of the cytotoxicity of CB 1954 by added co-substrate” value was “did not potentiate; also recorded: no potentialtion is observed”. Further, at NQO2 [3], the Km – broadly, the substrate concentration at which the rate is half of its maximum – came out at 1080 ± 135 µM; the turnover number (kcat) (as a rule, the number of substrate molecules converted per active site and unit of time at saturation) was found to be 25.5 s⁻¹.

On to `NC(=O)C1=CN([C@@H]2O[C@H](COP(=O)(O)O)[C@@H](O)[C@H]2O)C=CC1` [NMNH], for which, on NQO2 [3], the “RELATIVE RATE OF REDUCTION” value is 5.6.

With `NC(=O)C1=CN(Cc2ccccc2)C=CC1` [Compound 8, 1-benzyl-dihydronicotinamide], the “ability to act as co-substrate for NQO2” value is reported as “not cosubstrates” at NQO2 [3] and “not co-substrates” on NQO2 [3] (listed as compound 8).

For `NC(=O)C1=CN([C@@H]2O[C@H](COP(=O)(O)OP(=O)(O)OC[C@H]3O[C@@H](n4cnc5c(N)ncnc54)[C@H](O)[C@@H]3O)[C@@H](O)[C@H]2O)C=CC1` [NADH], the “ability of rat DT diaphorase to use” value on Rat DT-diaphorase is on record as “can use NADH as a co-substrate”. In addition, at E. coli nitroreductase, the “ability of E. coli nitroreductase” value was “can use NADH as a co-substrate”. For the same molecule, on NQO2 [3], the “RELATIVE RATE OF REDUCTION” value is given as 1.0 and the “ability to act as co-substrate for NQO2” value is “not readily catalysed; also recorded: not cosubstrates; also recorded: poor co-substrates”.

As for `O=c1c(O)c(-c2ccc(O)c(O)c2)oc2cc(O)cc(O)c12` [Quercetin, 3,5,7,3′,4′-pentahydroxyflavone], the Ki on NQO2 [4] stood at 27 nM.

For `NC(=O)C1=CN(CCc2ccccc2)C=CC1` [Compound 11], the “ability to act as co-substrate for NQO2” value at NQO2 [3] is “not cosubstrates; also recorded: poor co-substrate”.

On to `O=C(O)C1=CN(C2O[C@H](COP(=O)(O)O)[C@@H](O)[C@H]2O)C=CC1` (some centres unmarked) [nicotinic acid mononucleotide (reduced)], for which, at NQO2 [3], the “ability to act as co-substrate for NQO2” value is “not co-substrates”.

Take `NC(=O)C1=CN([C@@H]2O[C@H](COP(=O)(O)OP(=O)(O)OC[C@H]3O[C@@H](n4cnc5c(N)ncnc54)[C@H](OP(=O)(O)O)[C@@H]3O)[C@@H](O)[C@H]2O)C=CC1` [NADPH]: on NQO2 [3], the “RELATIVE RATE OF REDUCTION” value is reported as 1.24 and the “ability to act as co-substrate for NQO2” value is “not readily catalysed; also recorded: not cosubstrates; also recorded: poor co-substrates”.

`NC(=O)CN1C=CCC(C(N)=O)=C1` [Compound 2, 1-(carboxamidomethyl)-dihydronicotinamide]: in the data set on wild-type V79 cells, the “internalisation relative to NRH” value is listed as “about 10 % of NRH” and the “uptake / internalisation into cells” value was “poorly internalised”. For the same molecule, the “ability of rat DT diaphorase to use” value at Rat DT-diaphorase is given as “able to use”. Also, the “ability of E. coli nitroreductase” value on E. coli nitroreductase was “not able to use either”. In addition, the “intrinsic toxicity as judged by body weight loss” value in data set [1] is “no evidence of intrinsic toxicity”. Moreover, at NQO2 [3], the Km amounted to 198 ± 19 µM and the kcat came to 12.5 s⁻¹.

B1: Recombinant human NQO2 (Homo sapiens) (protein)
chain: MAGKKVLIVYAHQEPKSFNGSLKNVAVDELSRQGCTVTVSDLYAMNLEPRATDKDITGTLSNPEVFNYGVETHEAYKQRSLASDITDEQKKVREADLVIFQFPLYWFSVPAILKGWMDRVLCQGFAFDIPGFYDSGLLQGKLALLSVTTGGTAEMYTKTGVNGDSRYFLWPLQHGTLHFCGFKVLAPQISFAPEIASEEERKGMVAAWSQRLQTIWKEEPIPCTAHWHFGQ
notes: restriction site were added to the 5′ and 3′-ends of the full-length NQO2 cDNA; made in house; host or cells: E. coli (expression vector pKK233-2, plasmid pKK-hNQO2)
Turning to B1, in data set [5], the Km turned out to be 263 ± 13 µM and the kcat came to 6.01 s⁻¹.

Values taken from patent US7138122B2, “Therapeutic systems” (Enzacta R & D Limited, priority 1997, dated 2006).
